Reference: US20120214822A1 (ASTRAZENECA AB, priority 2007, published 2012)

Target: human active recombinant p38α-6His tagged (Homo sapiens, UniProt Q16539)
Assay: P38 Alpha Enzyme Assay (AlphaScreen, biotinylated-ATF2 substrate);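 note: 0.5 nM final p38α, reaction started with ATP and run 45 min at 37 °C, phospho-ATF2 read by antibody-based AlphaScreen, background wells quenched with EDTA before ATP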
Assay type: biochemical
Settings: p38 alpha enzyme inhibition; means of replicate determinations; 4 h pre-incubation at 37° C.; SD of assay 0.2-0.3 log units

Chain of human active recombinant p38α-6His tagged (Q16539 whole entry): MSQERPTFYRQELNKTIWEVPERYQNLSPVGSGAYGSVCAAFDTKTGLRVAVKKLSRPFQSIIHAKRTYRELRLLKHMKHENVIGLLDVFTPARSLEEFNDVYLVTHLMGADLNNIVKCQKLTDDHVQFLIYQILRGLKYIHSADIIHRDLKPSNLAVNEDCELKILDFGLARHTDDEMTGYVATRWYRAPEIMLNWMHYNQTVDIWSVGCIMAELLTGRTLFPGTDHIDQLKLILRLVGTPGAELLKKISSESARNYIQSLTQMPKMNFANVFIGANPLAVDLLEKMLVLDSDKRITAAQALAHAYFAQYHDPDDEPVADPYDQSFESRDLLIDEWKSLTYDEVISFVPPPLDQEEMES

| pIC50 | SMILES |
| --- | --- |
| 8.5 | COc1ccccc1[C@H](Nc1nccn(-c2cc(C(=O)NC3CC3)ccc2C)c1=O)[C@@H](C)CN1CCCC1 [Example 277, N-Cyclopropyl-3-[3-[[(1R,2S)-1-(2-methoxyphenyl)-2-methyl-3-(1-pyrrolidinyl)propyl]amino]-2-oxo-1(2H)-pyrazinyl]-4-methyl-benzamide] |
| 7.5 | Cc1ccc(C(=O)NC2CC2)cc1-n1ccnc(NC(CCN2CCOCC2)c2ccccc2)c1=O (stereo not drawn) [Example 77, N-Cyclopropyl-4-methyl-3-[3-[[3-(4-morpholinyl)-1-phenylpropyl]amino]-2-oxo-1(2H)-pyrazinyl]-benzamide] |
| 9.3 | Cc1ccc(C(=O)NC2CC2)cc1-n1ccnc(NC(C)(C)c2ccccc2OC2CCNCC2)c1=O [Example 219, N-Cyclopropyl-4-methyl-3-[3-[[1-methyl-1-[2-(4-piperidinyloxy)phenyl]ethyl]amino]-2-oxo-1(2H)-pyrazinyl]-benzamide] |
| 9.9 | Cc1ccc(C(=O)NC2CC2)cc1-n1ccnc(NC2(c3ccccc3OCCN(C)C)CC2)c1=O [Example 237, N-Cyclopropyl-3-[3-[[1-[2-[2-(dimethylamino)ethoxy]phenyl]cyclopropyl]amino]-2-oxo-1(2H)-pyrazinyl]-4-methyl-benzamide] |
| 8 | Cc1cccc(CNc2nccn(-c3cc(C(=O)NC4CC4)ccc3C)c2=O)c1 [Example 46, N-Cyclopropyl-4-methyl-3-[3-[[(3-methylphenyl)methyl]amino]-2-oxo-1(2H)-pyrazinyl]-benzamide] |
| 8.1 | Cc1ccc(C(=O)NC2CC2)cc1-n1ccnc(N[C@@H](c2cccc3ccccc23)[C@@H](C)CO)c1=O [Example 137, N-Cyclopropyl-3-[3-[[(1R,2R)-3-hydroxy-2-methyl-1-(1-naphthalenyl)propyl]amino]-2-oxo-1(2H)-pyrazinyl]-4-methyl-benzamide] |
| 9.6 | Cc1ccc(C(=O)NC2CC2)cc1-n1ccnc(N[C@@H](c2ccccc2)[C@@H](C)CN2CCN(C3CCS(=O)(=O)C3)CC2)c1=O (stereo partly drawn) [Example 191, N-Cyclopropyl-4-methyl-3-[3-[[(1R,2S)-2-methyl-1-phenyl-3-[4-(tetrahydro-1,1-dioxido-3-thienyl)-1-piperazinyl]propyl]amino]-2-oxo-1(2H)-pyrazinyl]-benzamide] |
| 8.5 | Cc1ccccc1[C@H](Nc1nccn(-c2cc(C(=O)NC3CC3)ccc2C)c1=O)[C@@H](C)CO [Example 272, N-Cyclopropyl-3-[3-[[(1R,2R)-3-hydroxy-1-(2-methylphenyl)-2-methylpropyl]amino]-2-oxo-1(2H)-pyrazinyl]-4-methyl-benzamide] |
| 9.1 | Cc1ccc(C(=O)NC2CC2)cc1-n1ccnc(NC(C)(C)c2ccccc2OCC2CCCNC2)c1=O (stereo not drawn) [Example 218, N-Cyclopropyl-4-methyl-3-[3-[[1-methyl-1-[2-(3-piperidinylmethoxy)phenyl]ethyl]amino]-2-oxo-1(2H)-pyrazinyl]-benzamide] |
| 7.8 | CCOc1ccccc1CNc1nccn(-c2cc(C(=O)NC3CC3)ccc2C)c1=O [Example 78, N-Cyclopropyl-3-[3-[[(2-ethoxyphenyl)methyl]amino]-2-oxo-1(2H)-pyrazinyl]-4-methyl-benzamide] |
| 9.4 | CONC(=O)c1ccc(C)c(-n2ccnc(NC(C)(C)c3ccccc3)c2=O)c1 [Example 112, N-Methoxy-4-methyl-3-[3-[(1-methyl-1-phenylethyl)amino]-2-oxo-1(2H)-pyrazinyl]] |
| 9.4 | Cc1ccc(C(=O)NC2CC2)cc1-n1ccnc(NC2(c3ccccc3OCCN3CCc4c(ncn4C)C3)CC2)c1=O [Example 297, N-Cyclopropyl-4-methyl-3-{3-[(1-{2-[2-(1-methyl-1,4,6,7-tetrahydro-5H-imidazo[4,5-c]pyridin-5-yl)ethoxy]phenyl}cyclopropyl)amino]-2-oxopyrazin-1(2H)-yl}benzamide] |
| 9.6 | Cc1ccc(C(=O)NC2CC2)cc1-n1ccnc(NC(C)(C)c2ccccc2OC2CNC2)c1=O [Example 215, N-Cyclopropyl-4-methyl-3-[3-[[1-[2-(3-azetidinyloxy)phenyl]-1-methylethyl]amino]-2-oxo-1(2H)-pyrazinyl]-benzamide] |
| 6.3 | Cc1ccc(C(=O)NC2CC2)cc1-n1ccnc(NCC(c2ccccc2)N2CCCC2)c1=O (stereo not drawn) [Example 63, N-Cyclopropyl-4-methyl-3-[2-oxo-3-[[2-phenyl-2-(1-pyrrolidinyl)ethyl]amino]-1(2H)-pyrazinyl]-benzamide] |
| 9 | Cc1ccc(C(=O)NC2CC2)cc1-n1ccnc(N[C@@H](c2ccccc2)[C@@H](C)CNCC(C)C)c1=O [Example 182, N-Cyclopropyl-4-methyl-3-[3-[[(1R,2S)-2-methyl-3-[(2-methylpropyl)amino]-1-phenylpropyl]amino]-2-oxo-1(2H)-pyrazinyl]-benzamide] |
| 6.8 | Cc1ccc(C(=O)NC2CC2)cc1-n1ccnc(Sc2ccccc2)c1=O [Example 117, N-Cyclopropyl-4-methyl-3-[2-oxo-3-(phenylthio)-1(2H)-pyrazinyl]-benzamide] |
| 7.6 | Cc1ccc(C(=O)NC2CC2)cc1-n1ccnc(N[C@H](CC(=O)NC2CC2)c2ccccc2)c1=O [Example 89] |
| 6.4 | Cc1ccc(CNc2nccn(-c3cc(C(=O)NC4CC4)ccc3C)c2=O)cc1 [Example 42, N-Cyclopropyl-4-methyl-3-[3-[[(4-methylphenyl)methyl]amino]-2-oxo-1(2H)-pyrazinyl]-benzamide] |
| 8.7 | COc1ccccc1[C@H](Nc1nccn(-c2cc(C(=O)NC3CC3)ccc2C)c1=O)[C@@H](C)CO [Example 274, N-Cyclopropyl-3-[3-[[(1R,2R)-3-hydroxy-1-(2-methoxyphenyl)-2-methylpropyl]amino]-2-oxo-1(2H)-pyrazinyl]-4-methyl-benzamide] |
| 6 | Cc1ccc(C(=O)NC2CC2)cc1-n1ccnc(N(CCN(C)C)Cc2ccccc2)c1=O [Example 121, N-Cyclopropyl-3-[3-[[2-(dimethylamino)ethyl](phenylmethyl)amino]-2-oxo-1(2H)-pyrazinyl]-4-methyl-benzamide] |
| 9.5 | CCNCCOc1ccccc1C(CC)(CC)Nc1nccn(-c2cc(C(=O)NC3CC3)ccc2C)c1=O [Example 267, N-Cyclopropyl-3-[3-[[1-ethyl-1-[2-[2-(ethylamino)ethoxy]phenyl]propyl]amino]-2-oxo-1(2H)-pyrazinyl]-4-methyl-benzamide] |
| 9.5 | Cc1ccc(C(=O)NC2CC2)cc1-n1ccnc(NC2(c3ccccc3OCCNCCF)CC2)c1=O [Example 245, N-Cyclopropyl-3-[3-[[1-[2-[2-[(2-fluoroethyl)amino]ethoxy]phenyl]cyclopropyl]amino]-2-oxo-1(2H)-pyrazinyl]-4-methyl-benzamide] |
| 7.6 | Cc1ccc(C(=O)NC2CC2)cc1-n1ccnc(NCc2ccccc2O)c1=O [Example 68, N-Cyclopropyl-3-[3-[[(2-hydroxyphenyl)methyl]amino]-2-oxo-1(2H)-pyrazinyl]-4-methyl-benzamide] |

| SMILES | pIC50 |
| --- | --- |
| CNCCCCOc1ccccc1C(C)(C)Nc1nccn(-c2cc(C(=O)NC3CC3)ccc2C)c1=O [Example 204, N-Cyclopropyl-4-methyl-3-[3-[[1-methyl-1-[2-[4-(methylamino)butoxy]phenyl]ethyl]amino]-2-oxo-1(2H)-pyrazinyl]-benzamide] | 9.8 |
